Read-outs that look alike come from different tables or passages of the source.
Assays:
[1] = test system: KNS62; experiment: PKMYT1 siRNA knockdown proliferation assay (ViaLight, 72 hours); format: cell-based, human; details: for dose response curves in control (CT) versus PKMYT1 siRNA transfected cells / EC50: 72 hours; for EC50: Homo sapiens, KNS-62, 72 h, n=2, read-out: anti-proliferative EC50
Method: (§1) For the knockdown studies, NCI-H460 and KNS62, two non-small cell lung cancer cell lines, American Type Culture Collection, Manassas, Va., were transfected with siRNA pools (SMARTpool, Dharmacon, Thermo Fisher Scientific, Waltham, Mass.) with either non-targeting control or PKMYT1 sequences. […] To approximate cell content, ViaLight (Lonza, Basel, Switzerland) was used according to manufacturer's protocol. Samples were run in triplicate and growth was calculated by determining the percentage of the control raw value for each treatment.

[2] = test system: NCI-H460; experiment: as above; format: cell-based, human; details: for dose response curves in control (CT) versus PKMYT1 siRNA transfected cells / EC50: 72 hours; for EC50: Homo sapiens, NCI-H460, 72 h, n=3, read-out: anti-proliferative EC50
Method: as §1

[3] = test system: 522 cancer cell lines; experiment: Cellular proliferation assay screen (CellTiter-Glo, 96 hours); format: cell-based, human; details: for EC50: Homo sapiens, 96 h
Method: (§2) All cancer cell lines were grown in medium recommended by the cell line vendor (ATCC). Tissue culture media, serum, and supplements were purchased from Sigma-Aldrich® (St. Louis, Mo.). For the proliferation assay screen (FIG. 1), cells were plated in 384-well tissue culture plates and grown under compound or vehicle treatment. After 96 hours, CellTiter-Glo (Promega, Madison, Wis.) was used according to the manufacturer's protocol to approximate cell content. Samples were run in triplicate and growth was calculated as the CellTiter-Glo raw value of treated samples relative to vehicle-treated control wells.

[4] = test system: colorectal cancer cell lines; experiment: as above; format: cell-based; details: Homo sapiens, n=66
Method: as §2

[5] = test system: neuroblastoma tumor cell lines; experiment: as above; format: cell-based; details: Homo sapiens, n=7
Method: as §2

[6] = test system: A427 non-small cell lung cancer cell line; experiment: Proliferation assay; format: cell-based; details: Homo sapiens, A-427
Method: as §2

[7] = test system: A431; experiment: Proliferation assay; format: cell-based; details: Homo sapiens, A-431
Method: as §2

[8] = test system: ES-2; experiment: Proliferation assay; format: cell-based; details: Homo sapiens
Method: as §2

[9] = test system: KNS62; experiment: Proliferation assay; format: cell-based; details: Homo sapiens, KNS-62
Method: as §2

[10] = test system: NCI-H460; experiment: Proliferation assay; format: cell-based; details: Homo sapiens
Method: as §2

[11] = test system: pCHK1^S345; experiment: Western blot, DNA damage response marker; format: cell-based, human; details: 2 hours
From the text: (§3) Cells were lysed in mammalian protein extraction reagent (MPER, Thermo Fisher 78505, Waltham, Mass.) and then subjected to SDS-PAGE and transferred onto nitrocellulose or PVDF membranes. Antibodies used for Western blotting are from the following sources: total CDK1, pCDK1^Y15, pCDK1^T14, pCHK1^S345, pStathmin^S38, pLaminA/C^S22, pCDK substrate motif, γH2AX, Cyclin A, and total PKMYT1 from Cell Signaling Technologies (Beverly, Mass.); actin-HRP from Santa Cruz Biotechnology (Santa Cruz, Calif.); secondary HRP-conjugated anti-mouse and rabbit antibodies from GE Healthcare (Waukesha, Wis.). Blots were exposed with SuperSignal West Femto chemiluminescent substrate (Thermo Fisher Pierce, Waltham, Mass.).

[12] = test system: pCDK1^Y15; experiment: Western blot, WEE1 substrate phosphorylation; format: cell-based, human; details: all six cell lines; 2 hours
From the text: as §3

[13] = test system: pCDK1^T14; experiment: Western blot, CDK1 T14 phosphorylation; format: cell-based, human; details: six cell lines, possible exception of A427; 2 hours
From the text: as §3

[14] = test system: TOV21G ovarian cancer cells; experiment: Flow cytometry for DNA double strand breaks (γH2AX) and BrdU uptake; format: cell-based, human; details: 150 nM
Method: (§4) To detect DNA double strand breaks, cells were stained with a FITC-conjugated anti-γH2AX (S139) antibody (kit 17-344, Millipore, Billerica, Mass.) after having been fixed overnight in ice-cold 70% ethanol Propidium iodide (PI)/RNase solution (BD Biosciences, Franklin Lakes, N.J.) was used to detect total DNA content. For studies interrogating premature mitosis, an anti-pHH3-Alexa 647 antibody (BD Biosciences 558217) was added. For synchronization studies, cells were incubated in serum-free medium for 36 hours, followed by replenishment with 20% FBS. One hour prior to each harvest, cells were pulsed with 10 μM bromodeoxyuridine (BrdU). Cells were fixed and stained for BrdU and DNA content with an anti-BrdU FITC-conjugated antibody and 7-aminoactinomycin-D (7-AAD) dye, respectively, according to the instructions in the BD Pharmingen™ FITC BrdU Flow Kit (BD Biosciences, Franklin Lakes, N.J.). All cytometry data were collected on the BD LSR II flow cytometer using the BD FACS Diva™ software (BD Biosciences, Franklin Lakes, N.J.), and the results were analyzed in FlowJo version 7.5.

[15] = test system: ES-2 cells; experiment: Cell synchronization study, S-phase population (BrdU); format: cell-based, human
Method: For synchronization studies, cells were incubated in serum-free medium for 36 hours, followed by replenishment with 20% FBS. One hour prior to each harvest, cells were pulsed with 10 μM bromodeoxyuridine (BrdU). Cells were fixed and stained for BrdU and DNA content with an anti-BrdU FITC-conjugated antibody and 7-aminoactinomycin-D (7-AAD) dye, respectively, according to the instructions in the BD Pharmingen™ FITC BrdU Flow Kit (BD Biosciences, Franklin Lakes, N.J.). All cytometry data were collected on the BD LSR II flow cytometer using the BD FACS Diva™ software (BD Biosciences, Franklin Lakes, N.J.), and the results were analyzed in FlowJo version 7.5.

[16] = test system: A2058 cells; experiment: Flow cytometry for mitotic marker pHH3; format: cell-based, human; details: EC90 concentration; 24 hours
Method: (§5) To detect DNA double strand breaks, cells were stained with a FITC-conjugated anti-γH2AX (S139) antibody (kit 17-344, Millipore, Billerica, Mass.) after having been fixed overnight in ice-cold 70% ethanol Propidium iodide (PI)/RNase solution (BD Biosciences, Franklin Lakes, N.J.) was used to detect total DNA content. For studies interrogating premature mitosis, an anti-pHH3-Alexa 647 antibody (BD Biosciences 558217) was added.

[17] = test system: HT-29 cells; experiment: Flow cytometry for mitotic marker pHH3; format: cell-based, human; details: EC90 concentration; 24 hours
Method: as §5

[18] = test system: LoVo cells; experiment: Flow cytometry for mitotic marker pHH3; format: cell-based, human; details: EC90 concentration; 24 hours
Method: as §5

[19] = test system: A2058 cells; experiment: Flow cytometry for γH2AX at EC90; format: cell-based, human; details: EC90 concentration; 24 hours
Method: as §5

[20] = test system: HT-29 cells; experiment: Flow cytometry for γH2AX at EC90; format: cell-based, human; details: EC90 concentration; 24 hours
Method: as §5

[21] = test system: LoVo cells; experiment: Flow cytometry for γH2AX at EC90; format: cell-based, human; details: EC90 concentration; 24 hours
Method: as §5

[22] = test system: ES-2 cells; experiment: Flow cytometry for γH2AX in serum-starved cells with or without FBS; format: cell-based, human; details: 500 nM; 24 hours; 20% FBS
Method: as §4

[23] = twice daily (BID) dosing
From the text: (§6) CD-1 Nu/Nu female mice aged 5-6 weeks were obtained from Charles River Laboratories (Wilmington, Del.) and housed in Applicants animal care facility at standard laboratory conditions and fed 2018S autoclaveable diet (Harlan Laboratories, Indianapolis, Ind.) and water ad libitum. The protocol was approved by Applicants' in-house animal care and use committee. Mice were inoculated with cells (1:1 Matrigel:PBS) subcutaneously (SC) into the right flank. […] Tumor volume and body weights were recorded bi-weekly.

[24] = test system: A427 xenograft; experiment: In vivo efficacy, xenograft; set-up: species or system mice; details: 60 mg/kg BID, 28 days
From the text: as §6

[25] = test system: A431 epidermoid tumor model; experiment: In vivo efficacy, xenograft; set-up: species or system mice; details: single agent
From the text: as §6

[26] = test system: LoVo colorectal tumor model; experiment: In vivo efficacy, xenograft; set-up: species or system mice; details: single agent, 60 mg/kg BID; treatment stopped on day 13
From the text: as §6

[27] = test system: NCI-H2122 NSCLC model; experiment: In vivo efficacy, xenograft; set-up: species or system mice; details: single agent
From the text: as §6

[28] = test system: SK-MES-1 NSCLC model; experiment: In vivo efficacy, xenograft; set-up: species or system mice; details: single agent, 60 mg/kg BID
From the text: as §6

O=C(NOC[C@H](O)CO)c1ccc(F)c(F)c1Nc1ccc(I)cc1F [PD-0325901, reference compound]
dose response curves in control (CT) versus PKMYT1 siRNA transfected cells [1]: identical dose response curves
dose response curves in control (CT) versus PKMYT1 siRNA transfected cells [2]: identical dose response curves

COc1cccc2c1C(=O)c1c(O)c3c(c(O)c1C2=O)C[C@@](O)(C(=O)CO)C[C@@H]3O[C@H]1C[C@H](N)[C@H](O)[C@H](C)O1 [doxorubicin, reference compound]
dose response curves in control (CT) versus PKMYT1 siRNA transfected cells [1]: identical dose response curves
dose response curves in control (CT) versus PKMYT1 siRNA transfected cells [2]: identical dose response curves

N.N.O=C([O-])C1(C(=O)[O-])CCC1.[Pt+2] [carboplatin, reference compound]
dose response curves in control (CT) versus PKMYT1 siRNA transfected cells [1]: identical dose response curves
dose response curves in control (CT) versus PKMYT1 siRNA transfected cells [2]: identical dose response curves

C=CCn1c(=O)c2cnc(Nc3ccc(N4CCN(C)CC4)cc3)nc2n1-c1cccc(C(C)(C)O)n1 [WEE1-1, 2-allyl-1-[6-(1-hydroxy-1-methylethyl)pyridin-2-yl]-6-{[4-(4-methylpiperazin-1-yl)phenyl]amino}-1,2-dihydro-3H-pyrazolo[3,4-d]pyrimidin-3-one]
response on an adjusted scale (cell lines that were killed) ([3]; 450 nM, 33 of 305 cell lines, 96-hour proliferation assay, 0.25 or less = cell death): < 0.25
EC50 ([3]; lower end of range, 2% (9/522) of cell lines): ≤ 100 nM
EC50 ([3]; upper end of range, 19% (98/522) of cell lines): ≥ 1000 nM
range of anti-proliferative EC50s ([3]; across cell lines screened): at least 10 fold
EC50 ([4]; read-out: EC50 range): ≥ 170 nM
EC50 ([4]; read-out: mean EC50): 1160 nM
EC50 ([5]; read-out: EC50 range): 120 to 450 nM
EC50 ([5]; read-out: mean EC50): 280 nM
EC50 [6]: 116 nM
EC50 [7]: 170 nM
EC50 [8]: 256 nM
EC50 [9]: 487 nM
EC50 [10]: 535 nM
lowest concentration with evidence of increased pCHK1^S345 ([11]; ES-2, A2058, A431 and A427): 50 nM
activation of the DDR (pCHK1^S345) ([11]; all six cell lines (ES-2, A2058, A431, A427, KNS62, NCI-H460)): dose-dependent activation of the DDR
effect on pCDK1^Y15 [12]: dose-dependent reduction
effect on pCDK1^T14 [13]: did not observe a WEE1-1-dependent effect
share of DNA damage detected in BrdU-positive cells ([14]; 2 hours): 95%
share of DNA damage detected in BrdU-positive cells ([14]; 6 hours): 92%
cells staining positive for γH2AX ([14]; two hours of treatment, 1% to 2% in untreated growing cells): 23%
change in the S-phase population by 8 hours ([15]; 500 nM with 20% FBS): no detectable change
peak S-phase population ([15]; 500 nM with 20% FBS after 36 hours serum withdrawal): about 50%
time of peak S-phase population post-FBS ([15]; 500 nM with 20% FBS, vehicle peak at 12 to 14 hours): 24 h
percentage of pHH3 positive cells [16]: increased
mitotic (pHH3 positive) population with 4N DNA [17]: 43%
mitotic (pHH3 positive) population with <4N DNA [17]: 23%
percentage of pHH3 positive cells [18]: increased
H2AX-positive cell population [19]: 8%
H2AX-positive cell population [20]: 59%
H2AX-positive cell population [21]: 27%
degree of DNA double strand breaks (γH2AX) under mitogen stimulation versus cells not restimulated [22]: appreciably larger
maximum tolerated dose (MTD) [23]: 60 mg per kg
final volumes of individual treated tumors versus initial volumes ([24]; all 10 tumors): smaller than their initial volumes
regression, final volume as % of the initial mean tumor volume ([24]; n=10): approximately 50%
TGI [25]: 88%
tumor regression [26]: 13%
TGI [27]: 64%
Tumor growth inhibition (TGI) [28]: 92%
maximal effect of treatment upon PKMYT1 depletion [1]: not affected
EC50 ([1]; PKMYT1 knocked down): 93 nM
EC50 ([1]; non-targeting control siRNA): 487 nM
maximal effect of treatment upon PKMYT1 depletion [2]: not affected
EC50 ([2]; PKMYT1 knocked down): 104 nM
EC50 ([2]; non-targeting control siRNA): 677 nM
